Test results from patent US20260049101A1, “TOPICAL TREATMENT OF SKIN CANCER USING OLIGOPEPTIDES” (BACOBA AG, priority 2022, published 2026).
“Also recorded” adds a separate entry of the source. Where two headings read alike, the source gives them in different places. Square brackets hold non-standard residues; d marks the D form. Peptide text beside a SMILES is read from it. * marks the point of attachment. NH(1-CH2NMe2-cBu) = CN(C)CC1(N*)CCC1; Benzoyl(4-F) = O=C(c1ccc(F)cc1)*; hCha = N[C@@H](CCC1CCCCC1)C(=O)O; Aib = CC(C)(N)C(=O)O; βAla = NCCC(=O)O

Assays:
[1] = test system: cutaneous squamous cell carcinoma cell line A431_SCC; conditions: read-out: IC50 A431
Procedure: (§1) For the maintenance of healthy human fibroblast cell culture Dulbecco's Modified Eagle Medium (DMEM, Cat #11966025, Gibco) supplemented with 10% heat-inactivated fetal bovine serum (Cat #S006420H01, BioWest) was used. For the maintenance of melanoma cell cultures RPMI-1640 (Cat #R0883, Gibco) supplemented with L-glutamine (Cat #25030-081, Gibco), 1 mM sodium pyruvate (Cat #S8636, Sigma-Aldrich), 10% heat-inactivated fetal bovine serum (Cat #S006420H01, BioWest) and 1% Penicillin-Streptomycin (Cat #15140122, Gibco) was used. The MyLa_CTCL cell cultures were cultivated in RPMI 1640 Medium (R0883) supplemented with 2 mM L-Glutamine (G7513), 10 U/ml IL-2 (H7041), 10 U/ml IL-4 (H7291) and 10% Human AB Serum (H4522). The cutaneous squamous cell carcinoma cell cultures A431 and SCC13 were cultivated in Dulbecco's Modified Eagle Medium (DMEM, Cat #11966025, Gibco) supplemented with 10% heat-inactivated fetal bovine serum (Cat #S006420H01, BioWest).
(§2) To determine the half maximal inhibitory concentrations (IC50's) serial dilution of compounds in DMSO to 1000× was performed (10 mM, 5 mM, 1 mM, 500 μM, 250 μM, 100 μM, 10 μM, 1 μM). 2 μl of these dilutions were further diluted in 198 μl growth medium with supplements, mixed well and 10 μl were further dispensed in triplicates to the 96-well plates containing cells in 90 μl.
(§3) For each drug condition and cell culture (for each row of the triplicate) a well with only RPMI-1640 complete/KSFM/DMEM media and one with media and DMSO were made as controls. DMSO was never at a higher concentration than 0.2% v/v. Triplicates were seeded for each condition. On the day of the assay, the medium was exchanged with cell culture media containing 0.1% of Resazurin-sodium salt stock solution (stock: 0.015 mg/ml, in PBS, Cat #R7017, Sigma-Aldrich). […] With a fluorescence-based plate reader (Infinite M200 Pro, Tecan, Switzerland) using excitations between […] and emissions at 590 nM the cell-culture plates were readout. The calculations and graphs are performed with GraphPad Prism program. Vehicle treated wells were set to 100% viability.

[2] = test system: cutaneous T cell lymphoma MyLa_CTCL; conditions: read-out: IC50 MyLa_CTCL
Procedure: as §1, §2, §3

[3] = test system: cutaneous melanoma M150507; conditions: read-out: IC50 M150507
Procedure: as §1, §2, §3

[4] = test system: M130107; conditions: read-out: IC50 M130107
Procedure: as §1, §2, §3

[5] = test system: cutaneous melanoma M010817; conditions: read-out: IC50 M010817
Procedure: as §1, §2, §3

[6] = test system: cutaneous squamous cell carcinoma cell line SCC13; conditions: read-out: IC50 SCC13
Procedure: as §1, §2, §3

[7] = test system: cutaneous melanoma M150672; conditions: read-out: IC50 M150672
Procedure: as §1, §2, §3

[8] = test system: healthy skin dermal fibroblasts
Procedure: as §1, §2, §3

[9] = test system: B16F10 xenografts in C57BL/6 mice; test: Histopathology (Ki67, TUNEL) of tumour slices from treated mice; type: in vivo, mouse; conditions: daily 20 μl of 6027 vs vehicle treated controls; Two-Way ANOVA
Procedure: The read out was tumour volume measured three times a week expressed as tumour volume (in cm^3). Additionally, tumour samples were taken for histological analysis (Tumour FFPE) (2 mice per group).
Histopathology. After sacrifice non ulcerated tumours were sampled and paraffin blocks were prepared for immunohistochemistry stainings. […] During interphase, the Ki-67 antigen can be exclusively detected within the cell nucleus, whereas in mitosis most of the protein is relocated to the surface of the chromosomes. Ki-67 protein is present during all active phases of the cell cycle (G1, S, G2 and mitosis), but is absent in resting (quiescent) cells (G0). Cellular content of Ki-67 protein markedly increases during cell progression through S phase of the cell cycle.
TUNEL staining was used to determine areas of the tumour in which apoptosis was observed. Terminal deoxynucleotidyl transferase dUTP nick end labeling (TUNEL) staining is a method for detecting DNA fragmentation by labeling the 3′-hydroxyl termini in DNA double-stranded breaks generated during apoptosis.

[10] = test system: patient derived Basal Cell Carcinoma (BCC); type: cell-based, human; conditions: 4 days, vs DMSO; for cell proliferation (Ki67): p<0.002
Excerpt: Tumour material was harvested from an infiltrative basal cell carcinoma (BCC) from a patient's nose.

[11] = test system: cutaneous squamous cell carcinoma cell line SCC12; test: In vitro anti-proliferative assay (resazurin) in SCC12; type: cell-based; conditions: SCC12, 72 hours
Excerpt: Methodology. The cutaneous squamous cell carcinoma cell culture SCC12 was cultivated in keratinocyte-SFM media (KSFM, Cat #17005042, Gibco) supplemented with human recombinant epidermal growth factor 1-53 (EGF 1-53) and bovine pituitary extract (BFE).
Vehicle treated wells were set to 100% viability.

[12] = Franz cells, 48 hours, donor 0.1% 6027 in DMSO, acceptor PBS + 2% Volpo; % of total 6027
Procedure: Pig ears from freshly slaughtered pigs, not older than 5 months and of both sexes, were obtained from the slaughterhouse Bell Schweiz AG (Basel, Switzerland). The ears were washed with tap water and the hairs were removed with an electric clipper. The skin was separated from the underlying cartilage from the backside of the ear by using a scalpel. After washing the skin again, it was stored in aluminium foil at −20° C. for no longer than one month.
After thawing the frozen skin, it was cut into adequate circles and the skin thickness was measured with a calliper. The skin was mounted into the FDC, tightly sealed with Teflon band and fixed in special designed holder. Then the acceptor compartment was equipped with a magnetic stirrer, filled with placebo formulation and equilibrated for one hour. To check the barrier integrity and to be sure that there are no invisible damages from skin preparation TEWL (transepidermal water loss) was measured. The FDCs were then placed in the water bath +32° C.±1 over a magnetic stirrer (500 rpm). Due to differences of each FDC, the skin application area for drug permeation was measured and calculated for each cell in advance. Consequently, the amount of 6027 for the donor compartment had to be adjusted for the infinite-dose experiment to 284.1 μL/cm^2.
At predefined time points 50 μL samples were taken from the acceptor compartment. The missing volume was replaced with the corresponding placebo formulation.
At the end of the permeation experiment and before reassembling the FDCs, the donor compartments were washed out with 10 mL ACN:H2O (55:45).
To extract 6027 from the skin, the frozen skin was cut into small pieces and grinded by a cryogenic grinder Freezer/Mill® from Spex SamplePrep (Metuchen, USA). The setting was 10 min precooling and a rate of 10 CPS for 4 cycles with 2 minutes. The resulting powder was resuspended in 2 mL ACN:H2O (55:45). […]
The concentrations of 6027 were determined by using HPLC-MS from Agilent Technologies. […]

[13] = test system: patient derived Basal Cell Carcinoma (BCC); test: Ex vivo patient-derived nodular BCC (Example 10), Ki67; type: cell-based, human; conditions: 500 nM, 4 days, compared to Vismodegib (20 μM); p<0.002
Procedure: Tumour material was harvested from a nodular basal cell carcinoma (BCC) from a patient's upper back.
Vismodegib (20 μM) was used as a positive control.

CC(C)C[C@H](NC(=O)[C@H](CCC1CCCCC1)NC(=O)[C@@H]1CCCN1C(=O)c1ccc(F)cc1)C(=O)NC(C)(C)C(=O)N[C@@H](CC(C)C)C(=O)N[C@@H](CC(C)C)C(=O)NC(C)(C)C(=O)NC(C)(C)C(=O)NCCC(=O)NC1(CN(C)C)CCC1 [Compound 6027, (2S)-2-[(2S)-4-cyclohexyl-2-{[(2S)-1-(4-fluorobenzoyl)pyrrolidin-2-yl]formamido}butanamido]-N-(1-{[(1S)-1-{[(1S)-1-({1-[(1-{[2-({1-[(dimethylamino)methyl]cyclobutyl}carbamoyl)ethyl]carbamoyl}-1-methylethyl)carbamoyl]-1-methylethyl}carbamoyl)-3-methylbutyl]carbamoyl}-3-methylbutyl]carbamoyl}-1-methylethyl)-4-methylpentanamide] ({Benzoyl(4-F)}-P[hCha]L[Aib]LL[Aib][Aib][βAla]-{NH(1-CH2NMe2-cBu)})
IC50 [1]: 70 nM | IC50 [2]: 451 nM | IC50 [3]: 56 nM | IC50 [4]: 169 nM | IC50 [5]: 60 nM | IC50 [6]: 191 nM | IC50 [7]: 122 nM | cytotoxicity against healthy skin dermal fibroblasts compared with skin cancer cell lines [8]: less pronounced | IC50 ([8]; read-out: IC50 Fibroblast, healthy skin dermal fibroblasts): 3030 nM | apoptotic cells (TUNEL) in tumour slices [9]: significant increase of apoptotic cells; also recorded: Strong proapoptotic potential | proliferative cells (Ki67) in tumour slices [9]: significant decrease in proliferative cells | apoptotic cells (TUNEL staining) ([10]; 500 nM): Significant increase | cell proliferation (Ki67) ([10]; 500 nM): significantly reduced | cell proliferation (Ki67) ([10]; 1 μM): significantly reduced | apoptotic cells (TUNEL staining) [10]: Significant increase | IC50 [11]: 118 nM | Acceptor (%) [12]: 0.2% | Donor (%) [12]: 79% | Skin extraction (%) (skin penetration) [12]: 16% | cell proliferation (Ki67) [13]: significantly reduced
